From US5169858A, “Anti-tumor compositions containing the reactive product of benzaldehyde or salicylaldehyde with penicillamine and method of use thereof” (priority 1986, dated 1992)

Key:
[1] = Terol et al publication; cited from earlier work
[2] = Terol et al publication; species and route not given; cited from earlier work
mouse melanoma cells [3] = assay: Subcutaneous mouse melanoma, treatment from palpable tumor, 33 mg/kg orally every day; format: in vivo, black mice; settings: 33 mg/kg every day by oral intubation
Procedure: (§1) Thirty-seven black mice were divided into two groups. Group I had 18 mice and was the control group. Group II had 19 mice and was the treated group. Each mouse was innoculated with 100,000 mouse melanoma cells subcutaneously. After the tumor was palpable (after about a week) the control group received saline orally. The treated group got 33 mg/kg of 5,5-dimethyl-2-phenyl-4-thiazolidine carboxylic acid every day by oral intubation. All of the control group died within an average of twenty-three days. The treated group started dying at day 50. The last mouse of the treated group died on day 70. The treated group died from day 50 on at the rate of about one mouse per day. […] Two mice in the treated group survived cured. The tumor disappeared in the two cured mice.

[4] = Water solubility of free compound and copper chelates; format: physicochemical; settings: stated in the description, no test described
mouse melanoma cells [5] = format: in vivo, black mice
Procedure: as §1
The same experiment was repeated with 20 control mice and 20 mice in the treated group, employing doses of 5,5-dimethyl-2-phenyl-4-thiazolidine carboxylic acid at 100 mg/kg. The treatment began about one day after innoculation. The control group died at the same time as the control group in the previous experiment. […] Five of the treated mice died between the 7th and 9th day. The reasons for these deaths are unclear, but it is presumed that they were asphyxiated by intubation.

tumor = settings: literature / other patent (Kochi et al.; U.S. Pat. No. 4,762,705); cited from earlier work

CC1(C)SC(c2ccccc2)NC1C(=O)O (stereo not drawn) [5,5-dimethyl-2-phenyl-4-thiazolidine carboxylic acid]
effect as a radio-protectant agent [1]: absolutely no effect whatsoever | LD50 [2]: 1200 mg/kg | tumor development compared with control group (mouse melanoma cells [3]): developed slower than the tumors in the control group | day of death of last mouse of treated group (mouse melanoma cells [3]; 19 treated mice): 70 days | mice in treated group that survived cured (tumor disappeared) (mouse melanoma cells [3]; 19 treated mice): Two | day on which treated group started dying (mouse melanoma cells [3]; 19 treated mice, control died within an average of twenty-three days): 50 days | water solubility [4]: water-soluble | palpable tumors developed in treated group (mouse melanoma cells [5]; 100 mg/kg, treatment began about one day after inoculation, 20 treated mice): no palpable tumors | day of death of the five treated mice (mouse melanoma cells [5]; mouse, in vivo): 7 to 9 days | treated mice that died between the 7th and 9th day (mouse melanoma cells [5]; mouse, in vivo): Five

O=Cc1ccccc1 [benzaldehyde]
anti-tumor activity (tumor): has been shown to have anti-tumor activity

CC(C)(S)[C@@H](N)C(=O)O [penicillamine, dimethylcysteine]
anti-tumor activity (tumor): has anti-tumor activity
